Patent US20070142412A1, “Crystalline form of 2-{4-['3-(4-chloro-2-fluorophenyl)-4-pyrimidin-4-yl-1h-pyrazol-5-yl]piperidin-1-yl}-2-oxoethanol” (priority 2003, published 2007)

Assay: Moisture sorption analysis (DVS) followed by PXRD
Assay type: physicochemical
Conditions: 25° C.
Description: The moisture sorption profile of the sample was determined using a Surface Measurement System (SMS) DVS-1 Automated Water Sorption Analyzer operating via SMS Software version 2.16. The change in mass of the sample versus relative humidity (RH) was monitored at 25° C. using a method from 30% to 0%, 0% to 90%, 90% to 0%, and 0% to 30% RH in 10% RH steps with dm/dt=3×10^−4. Maximum hold time per step was 4 hours. An approximately 15 mg sample was loaded onto the sample holder. The balance was calibrated with a 100 mg standard weight at 25° C. HPLC-grade water was used for the study. It is believed that about 0.5% water is believed to be surface bound moisture. To investigate the hydration state of the Form 1 hydrate, moisture sorption analysis was performed. At the conclusion of the study, the sample was removed from the moisture sorption balance and analyzed by PXRD. […] Constant mass was not obtained at 0% RH in the moisture sorption study; therefore, an additional moisture sorption study was conducted with increase maximum hold time per step to allow the sample to reach equilibrium over the low RH range. […] This theory is in no way to be construed as limiting.

O=C(CO)N1CCC(c2[nH]nc(-c3ccc(Cl)cc3F)c2-c2ccncn2)CC1 [Form 1 hydrate, 2-{4-[3-(4-chloro-2-fluorophenyl)-4-pyrimidin-4-yl-1H-pyrazol-5-yl]piperidin-1-yl}-2-oxoethanol]
Change in PXRD diffraction pattern after moisture sorption analysis (cycled 30% to 0%, 0% to 90%, 90% to 0%, 0% to 30% RH in 10% RH steps): No change was observed
Water content indicated by moisture sorption data (at least 0.5% thought to be surface bound moisture): approximately 5.5%
